Experimental data reported in the supplement of paper PMC11061612.

Assays:
Assay in all cases: Bliss excess, mean over the matrix (fraction); higher = more synergy
[1] = system: DiFi (Colorectal Carcinoma)
In short: (§1)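 After 24 hours at 37°C and 5% CO2 in 1536-well plates, cells in DMEM/F12 or RPMI plus 10% FBS received two-drug dose matrices for 72 hours. Viability came from CellTiter-Glo 2.0 luminescence and was scaled as inhibition, anchored at 0 by vehicle wells and at 1 by blank wells. Combination Emax is taken as the second-highest inhibition in the matrix, and Bliss excess as the observed combination effect less EA + EB − EA·EB, with EA and EB the single-agent effects.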

[2] = system: MKN28 (Gastric Carcinoma)
In short: as §1

[3] = system: MFM-223 (Breast Carcinoma)
In short: as §1

MEL-JUSO (Melanoma) = system: MEL-JUSO (Melanoma)
In short: as §1

[4] = system: MS751 (Cervical Carcinoma)
In short: as §1

[5] = system: P12-ICHIKAWA (T-Lymphoblastic Leukemia)
In short: as §1

[6] = system: SU-DHL-8 (B-Cell Non-Hodgkin's Lymphoma)
In short: as §1

[7] = system: HDQ-P1 (Breast Carcinoma)
In short: as §1

TC-71 (Ewing's Sarcoma) = system: TC-71 (Ewing's Sarcoma)
In short: as §1

[8] = system: SW1417 (Colorectal Carcinoma)
In short: as §1

WIL2-NS (Non-Cancerous) = system: WIL2-NS (Non-Cancerous)
In short: as §1

[9] = system: TE-6 (Esophageal Squamous Cell Carcinoma)
In short: as §1

U251 (Low Grade Glioma) = system: U251 (Low Grade Glioma)
In short: as §1

[10] = system: KYSE-180 (Esophageal Squamous Cell Carcinoma)
In short: as §1

[11] = system: BL-41 (Burkitt's Lymphoma)
In short: as §1

[12] = system: EVSA-T (Breast Carcinoma)
In short: as §1

[13] = system: NCI-H1792 (Lung Adenocarcinoma)
In short: as §1

[14] = system: CAMA-1 (Breast Carcinoma)
In short: as §1

[15] = system: NCI-H847 (Small Cell Lung Carcinoma)
In short: as §1

ES8 (Ewing's Sarcoma) = system: ES8 (Ewing's Sarcoma)
In short: as §1

SMILES | Bliss excess [1] | Bliss excess [2] | Bliss excess [3] | Bliss excess (MEL-JUSO (Melanoma)) | Bliss excess [4] | Bliss excess [5] | Bliss excess [6] | Bliss excess [7] | Bliss excess (TC-71 (Ewing's Sarcoma)) | Bliss excess [8] | Bliss excess (WIL2-NS (Non-Cancerous)) | Bliss excess [9] | Bliss excess (U251 (Low Grade Glioma)) | Bliss excess [10] | Bliss excess [11] | Bliss excess [12] | Bliss excess [13] | Bliss excess [14] | Bliss excess [15] | Bliss excess (ES8 (Ewing's Sarcoma))
Cc1c2c(nn1C)CSCc1cc(n(C)n1)CSc1cc(c3ccccc3c1)OCCCc1c(C(=O)O)n(C)c3c-2c(Cl)ccc13 [AZD5991] + C1CN(CCC1(C(=O)N[C@@H](CCO)C2=CC=C(C=C2)Cl)N)C3=NC=NC4=C3C=CN4 [Capivasertib] (first compound max 1 µM, 7x7, partner max 3 µM) | 0.0384 | -0.0198 | 0.0005 | -0.0203 | 0.0425 | 0.039 | -0.0225 | 0.0072 | 0.0256 | -0.0021 | -0.0169 | -0.0177 | 0.0231 | 0.0306 | 0.0066 | -0.0074 | -0.019 | 0.0993 | 0.0714 | 0.0627
Cc1c2c(nn1C)CSCc1cc(n(C)n1)CSc1cc(c3ccccc3c1)OCCCc1c(C(=O)O)n(C)c3c-2c(Cl)ccc13 [AZD5991] + C=CCn1c(=O)c2cnc(Nc3ccc(N4CCN(C)CC4)cc3)nc2n1-c1cccc(C(C)(C)O)n1 [AZD1775] (first compound max 1 µM, partner max 1 µM) | 0.0285 | -0.0227 | -0.0611 | -0.0033 | -0.0155 | 0.0528 | -0.01 | -0.0575 | 0.0478 | -0.0548 | 0 | 0.0135 | 0.0025 | 0.0464 | -0.0133 | 0.0165 | -0.0453 | -0.0092 | -0.0445 | 0.0203
Cc1c2c(nn1C)CSCc1cc(n(C)n1)CSc1cc(c3ccccc3c1)OCCCc1c(C(=O)O)n(C)c3c-2c(Cl)ccc13 [AZD5991] + CC1(C)CCC(CN2CCN(c3ccc(C(=O)NS(=O)(=O)c4ccc(NCC5CCOCC5)c([N+](=O)[O-])c4)c(Oc4cnc5[nH]ccc5c4)c3)CC2)=C(c2ccc(Cl)cc2)C1 [Venetoclax] (first compound max 1 µM, 7x7, partner max 1 µM) | 0.0436 | -0.0332 | -0.0041 | -0.0297 | 0.0031 | 0.0268 | 0.0491 | -0.0129 | 0.0733 | -0.0294 | -0.0302 | -0.157 | -0.0068 | 0.0103 | 0.0108 | 0.0125 | 0.0248 | 0.0985 | 0.253 | 0.0936
Cc1c2c(nn1C)CSCc1cc(n(C)n1)CSc1cc(c3ccccc3c1)OCCCc1c(C(=O)O)n(C)c3c-2c(Cl)ccc13 [AZD5991] + CCN(CCO)CCCOc1ccc2c(Nc3cc(CC(=O)Nc4cccc(F)c4)[nH]n3)ncnc2c1 [AZD2811] (first compound max 1 µM, 7x7, partner max 1 µM) | -0.0077 | 0.0839 | 0.0103 | 0.0389 | 0.0367 | -0.0164 | 0.0416 | -0.0283 | -0.0244 | -0.0139 | 0.0821 | 0.0482 | 0.098 | 0.102 | -0.0295 | 0.0959 | 0.016 | 0.0743 | 0.0011 | 0.012
Cc1c2c(nn1C)CSCc1cc(n(C)n1)CSc1cc(c3ccccc3c1)OCCCc1c(C(=O)O)n(C)c3c-2c(Cl)ccc13 [AZD5991] + CN(C)CCCOc1ccc(-c2ccc3ncc4c(c3c2)n(C2CCOCC2)c(=O)n4C)cn1 [AZD0156] (first compound max 1 µM, 7x7, partner max 1 µM) | -0.0112 | 0.0021 | -0.0038 | 0.0023 | 0.0099 | 0.108 | -0.0377 | 0.0104 | -0.001 | 0.0308 | -0.0099 | -0.0167 | 0.0334 | 0.0286 | 0.0168 | -0.0304 | 0.0004 | 0.002 | -0.0131 | 0.0224
Cc1c2c(nn1C)CSCc1cc(n(C)n1)CSc1cc(c3ccccc3c1)OCCCc1c(C(=O)O)n(C)c3c-2c(Cl)ccc13 [AZD5991] + C[C@@H]1COCCN1C2=NC(=NC(=C2)C3(CC3)[S@](=N)(=O)C)C4=C5C=CNC5=NC=C4 [AZD6738] (first compound max 1 µM, 7x7, partner max 10 µM) | 0.0302 | 0.0118 | 0.0601 | 0.0406 | 0.0565 | 0.0312 | 0.0814 | 0.0563 | 0.0554 | -0.0352 | -0.0025 | 0.0298 | 0.0572 | 0.0821 | -0.0045 | -0.0015 | 0.0332 | 0.0332 | 0.0145 | 0.0029
Cc1c2c(nn1C)CSCc1cc(n(C)n1)CSc1cc(c3ccccc3c1)OCCCc1c(C(=O)O)n(C)c3c-2c(Cl)ccc13 [AZD5991] + C[C@@H](Nc1cc(F)cc(F)c1)c1cc(C(=O)N(C)C)cc2c(=O)cc(N3CCOCC3)oc12 [AZD8186] (first compound max 1 µM, 7x7, partner max 3 µM) | 0.0406 | -0.0326 | -0.047 | 0.0086 | 0.0705 | -0.0058 | -0.0961 | -0.0209 | 0.0276 | -0.0342 | -0.0749 | -0.0515 | -0.0334 | 0.0187 | -0.0096 | 0.0412 | -0.0108 | 0.0868 | 0.0632 | 0.042
Cc1c2c(nn1C)CSCc1cc(n(C)n1)CSc1cc(c3ccccc3c1)OCCCc1c(C(=O)O)n(C)c3c-2c(Cl)ccc13 [AZD5991] + Cc1cc2ncnn2cc1Nc1ncc2c(n1)n(C1CCOCC1)c(=O)n2C [AZD7648] (first compound max 1 µM, 7x7, partner max 10 µM) | -0.0448 | 0.0046 | -0.0361 | -0.0453 | -0.0396 | -0.0167 | -0.0664 | -0.0352 | -0.0745 | 0.0054 | 0.0039 | -0.0874 | -0.0054 | -0.0126 | 0.029 | -0.0156 | -0.0248 | -0.0456 | 0.0083 | 0.0038
Cc1c2c(nn1C)CSCc1cc(n(C)n1)CSc1cc(c3ccccc3c1)OCCCc1c(C(=O)O)n(C)c3c-2c(Cl)ccc13 [AZD5991] + Cn1cnc2c(F)c(Nc3ccc(Br)cc3Cl)c(C(=O)NOCCO)cc21 [Selumetinib] (first compound max 1 µM, 7x7, partner max 3 µM) | 0.0064 | -0.0063 | -0.0199 | 0.0046 | 0.067 | 0.0419 | -0.074 | 0.0002 | 0.093 | -0.0015 | -0.0263 | 0.0043 | -0.0024 | 0.0341 | -0.0206 | 0.0136 | 0.0347 | -0.035 | 0.042 | -0.0171
COc1cccc(OCCCN)c1-c1cc(Nc2cnc(C#N)cn2)n[nH]1 [Prexasertib] + CCc1c2c(nc3ccc(O)cc13)-c1cc3c(c(=O)n1C2)COC(=O)[C@]3(O)CC [SN-38] (first compound max 1 µM, 7x7, partner max 0.3 µM) | -0.0153 | -0.0082 | 0.05 | -0.0378 | 0.0628 | -0.0253 | -0.0171 | 0.0367 | 0.0187 | 0.0029 | -0.0234 | 0.128 | 0.0241 | 0.0525 | -0.0231 | 0.224 | 0.0204 | 0.0573 | 0.055 | -0.0301
CC(=O)Nc1cccc(-n2c(=O)n(C3CC3)c(=O)c3c(Nc4ccc(I)cc4F)n(C)c(=O)c(C)c32)c1 [Trametinib] + Cc1nc(-c2cn3c(n2)-c2ccc(-c4cnn(C(C)(C)C(N)=O)c4)cc2OCC3)n(C(C)C)n1 [Taselisib] (first compound max 1 µM, 7x7, partner max 10 µM) | 0.107 | 0.0966 | -0.0174 | 0.12 | 0.128 | 0.267 | -0.0358 | 0.221 | 0.136 | -0.0045 | 0.174 | 0.0911 | 0.132 | 0.0886 | 0.0485 | -0.0335 | 0.109 | -0.0565 | 0.0603 | -0.0924
CC1(C)CCC(CN2CCN(c3ccc(C(=O)NS(=O)(=O)c4ccc(NCC5CCOCC5)c([N+](=O)[O-])c4)c(Oc4cnc5[nH]ccc5c4)c3)CC2)=C(c2ccc(Cl)cc2)C1 [Venetoclax] + C1CN(CCC1(C(=O)N[C@@H](CCO)C2=CC=C(C=C2)Cl)N)C3=NC=NC4=C3C=CN4 [Capivasertib] (first compound max 1 µM, 7x7, partner max 3 µM) | -0.022 | -0.0455 | -0.0258 | -0.0436 | -0.0161 | 0.0039 | -0.0918 | -0.0234 | -0.0684 | -0.0744 | -0.0145 | 0.0217 | -0.0133 | -0.0208 | -0.0058 | -0.0371 | -0.0549 | -0.056 | 0.0062 | -0.0933
CC1(C)CCC(CN2CCN(c3ccc(C(=O)NS(=O)(=O)c4ccc(NCC5CCOCC5)c([N+](=O)[O-])c4)c(Oc4cnc5[nH]ccc5c4)c3)CC2)=C(c2ccc(Cl)cc2)C1 [Venetoclax] + C=CCn1c(=O)c2cnc(Nc3ccc(N4CCN(C)CC4)cc3)nc2n1-c1cccc(C(C)(C)O)n1 [AZD1775] (first compound max 1 µM, partner max 1 µM) | -0.0222 | -0.0029 | -0.0987 | -0.0447 | 0.0125 | 0.0117 | 0.0401 | -0.014 | -0.0215 | -0.0132 | 0.054 | -0.0859 | -0.0787 | 0.0264 | -0.0319 | 0.0075 | 0.0479 | 0.0033 | -0.0022 | 0.0309
CC1(C)CCC(CN2CCN(c3ccc(C(=O)NS(=O)(=O)c4ccc(NCC5CCOCC5)c([N+](=O)[O-])c4)c(Oc4cnc5[nH]ccc5c4)c3)CC2)=C(c2ccc(Cl)cc2)C1 [Venetoclax] + CCN(CCO)CCCOc1ccc2c(Nc3cc(CC(=O)Nc4cccc(F)c4)[nH]n3)ncnc2c1 [AZD2811] (first compound max 1 µM, 7x7, partner max 1 µM) | -0.098 | -0.0257 | 0.0084 | -0.0165 | 0.0094 | -0.0612 | 0.0103 | 0.0063 | 0.0227 | -0.0567 | 0.0275 | -0.0112 | -0.0104 | 0.0453 | -0.137 | 0.0485 | 0.0122 | -0.0198 | 0.112 | 0.0092
